What was measured:
[1] = tested on: ginkgotoxin-induced zebrafish seizure model; experiment: Screening for drugs using the ginkgotoxin-induced zebrafish seizure model; type: in vivo, zebrafish (Dania rerio, AB strain); conditions: for rescuing effect: zebrafish at six hours post fertilization treated for 3 days, FIGS. 4A and 4B
Procedure: (§1) A solution of the ginkgotoxin is stored below −20° C. The ginkgotoxin concentrate of 40 mM is added to a fish water to keep the concentrations between 0.2 mM and 1 mM while the zebrafish seizure model is induced. The zebrafish is incubated in the fish water without ginkgotoxin for the control group.
(§2) Pyridoxal-5′-phosphate and GABA stock solution of 40 mM are used when measuring the response of zebrafish embryos seizure model with respect to effects of ant-convulsant drugs. Anticonvulsant drugs, such as gabapentin, phenyloin, and primidone, are dissolved in DMSO to make 100 mM concentration. During experiments, anticonvulsant drugs and ginkgotoxin are added to the fish water simultaneously, or the anticonvulsant drugs are added to the fish water three hours before the zebrafish behaviors are recorded and analyzed. This will be described in detail in the following.
(§3) The swimming behavior of zebrafish were was observed directly by naked eyes to determine the test results, and a quantified standard is made by a swimming distance and velocity of the zebrafish. At least 10 zebrafish were used for each group.
(§4) Besides, the zebrafish embryos are placed in 200 μl fish water in a concave on microscope slide. Herein, the zebrafish embryos are observed and recorded under a high-resolution dissecting microscope (Panasonic Digital video camera, DMC-FX55GT). Further, each condition, such as the swimming distance and velocity, of zebrafish are analyzed and quantified by a locomotion tracking system (EthoVision XT8.0 locomotion tracking system® (Noldus Information Technology, Inc., Leesburg, Va., USA)). The zebrafish is incubated in the fish water without ginkgotoxin for the control group.
Herein, GABA, PLP, gabapentin and phenyloin are used to perform experiments. The zebrafish embryos are incubated in fish water without ginkgotoxin represented as a “control group”; the zebrafish embryos are treated with ginkgotoxin represented as “GT”; the zebrafish embryos are treated simultaneously with ginkgotoxin and PLP of 0.5 mM represented as “GT+PLP”; the zebrafish embryos are treated simultaneously with ginkgotoxin and GABA of 0.5 mM represented as “GT+GABA”; the zebrafish embryos are treated simultaneously with ginkgotoxin and gabapentin of 1 mM represented as “GT+gabapentin”; the zebrafish embryos are treated simultaneously with ginkgotoxin and phenyloin of 1 mM represented as “GT+phenyloin”. The results are shown in FIGS. 2A to 4B, wherein, FIG. 2A and FIG. 2B are results showing that zebrafish at 3 days post fertilization of the example are treated for 2 hours; FIG. 3A and FIG. 3B are results showing that zebrafish at 5 days post fertilization of the example are treated for 2 hours; FIG. 4A and FIG. 4B are results that zebrafish at 6 hours post fertilization of the example were treated for 3 days. These indicate aggrevated seizure and convulsion when the swimming distance is longer and swimming velocity is faster transitorily.
Here, a comparison between the zebrafish seizure model induced by PTZ and one induced by ginkgotoxin is drawn. Wherein, the zebrafish embryos incubated in fish water without ginkgotoxin represented as a “control group”; the zebrafish embryos only treated with ginkgotoxin represented as “GT”; the zebrafish embryos treated only with PTZ of 0.5 mM represented as “PTZ”; the zebrafish embryos treated simultaneously with ginkgotoxin and DMSO represented as “GT+DMSO”; the zebrafish embryos treated simultaneously with PTZ and DMSO represented as “PTZ+DMSO”; the zebrafish embryos treated simultaneously with ginkgotoxin and gabapentin of 2 mM represented as “GT+gabapentin”; the zebrafish embryos treated simultaneously with PTZ and phenyloin of 2 mM represented as “PTZ+phenyloin”; the zebrafish embryos treated simultaneously with GT and folic acid of 1 mM represented as […]; the zebrafish embryos treated simultaneously with PTZ and folic acid of 1 mM is indicated as “PTZ+folic acid”. […]

zebrafish larvae = experiment: Establishing the zebrafish seizure model with ginkgotoxin; type: in vivo, zebrafish (Dania rerio, AB strain)
Procedure: as §1, §3, §4
To induce seizures, the zebrafish larvae at 5 days post fertilization (5-dpf) are placed in fish water containing ginkgotoxin of various concentrations (0.2 mM to 1 mM) and ecorded and analyzed 2 hours later. […]

[2] = tested on: PTZ-induced zebrafish seizure model; conditions: current experimental data; cited from earlier work
[3] = tested on: PTZ-induced zebrafish seizure model; experiment: Zebrafish seizure model induced by PTZ; type: in vivo, zebrafish (Dania rerio, AB strain); conditions: model induced by PTZ 0.5 mM, FIGS. 5A and 5B
Procedure: as §2, §3
as §4, with “group. […]” for “group.”

[4] = 0.5 mM added simultaneously with ginkgotoxin 0.5 mM, FIGS. 2A to 4B
[5] = 1 mM added simultaneously with ginkgotoxin 0.5 mM, regardless of embryonic stage, FIGS. 2A to 4B

SMILES	conditions of seizure and convulsion (swimming distance and velocity) [1, 4]	rescuing effect ([1]; 0.5 mM with ginkgotoxin)	conditions of seizure and convulsion (swimming distance and velocity) [1, 5]	rescuing effect ([1]; 1 mM with ginkgotoxin)	other results
NCCCC(=O)O [GABA, gamma-aminobutyric acid]	alleviated with a greater extent	most obvious signs of rescuing effect			
Cc1ncc(COP(=O)(O)O)c(C=O)c1O [PLP, Pyridoxal-5′-phosphate]	alleviated with a greater extent	most obvious signs of rescuing effect			
NCC1(CC(=O)O)CCCCC1 [gabapentin]			alleviated with greater extent	most obvious signs of rescuing effect	
COCc1c(CO)cnc(C)c1O [ginkgotoxin, 4-O-methylpyridoxine]					lower dose at which the zebrafish seizure model can be established (zebrafish larvae; 5-dpf larvae, after incubating for 2 hours, FIG. 1B): 0.2 mM; concentration at which the zebrafish seizure model can be established steadily (zebrafish larvae; zebrafish larvae at 5 days post fertilization, in fish water, FIGS. 1A and 1B): 500 µM; state of zebrafish treated with ginkgotoxin (swimming distance and velocity) ([1]; 0.5 mM, 3 dpf or 5 dpf treated 2 hours, 6 hpf treated 3 days, FIGS. 2A to 4B): states of seizure or convulsion
O=C1NC(=O)C(c2ccccc2)(c2ccccc2)N1 [phenyloin]			alleviated with greater extent	most obvious signs of rescuing effect	
CCC1(c2ccccc2)C(=O)NCNC1=O [primidone]					response of the PTZ-induced seizure model to the drug [2]: does not respond; detection as antiepileptic or anti-convulsion drug (seizure stage 0/I/II) ([1]; model induced by ginkgotoxin, FIGS. 5A and 5B): enable to screen out; detection as antiepileptic or anti-convulsion drug (seizure stage 0/I/II) [3]: could not be accomplished
